Measured values as given in US20070238716A1, “STATIN STABILIZING DOSAGE FORMULATIONS” (priority 2006, published 2007).
Counter-ions that a name gives are not always drawn.

Experiment: Solution state stability of the hemi calcium salt of Formula I at various pH conditions
Format: physicochemical
Description: Solution state stability studies were performed on 7-[2-(4-fluorophenyl)-5-isopropyl-3-phenyl-4-[(4-hydroxymethylphenylamino) carbonyl]-pyrrol- 1-yl]-3,5-dihydroxy-heptanoic acid by solubilizing the hemi calcium salt of Formula I at a range of pH conditions and storing the solution for one or two weeks under different temperature conditions.

CC(C)c1c(C(=O)Nc2ccc(CO)cc2)c(-c2ccccc2)c(-c2ccc(F)cc2)n1CCC(O)CC(O)CC(=O)O (centres unmarked) [7-[2-(4-fluorophenyl)-5-isopropyl-3-phenyl-4-[(4-hydroxymethylphenylamino)carbonyl]-pyrrol-1-yl]-3,5-dihydroxy-heptanoic acid]
pH at which the compound is stable in solution (conclusion from Table 1, more particularly pH 4.5 to pH 12): ≥ 4.5

CC(C)c1c(C(=O)Nc2ccc(CO)cc2)c(-c2ccccc2)c(-c2ccc(F)cc2)n1CCC(O)CC(O)CC(=O)O (centres unmarked) [hemi calcium salt of Formula I, 7-[2-(4-fluorophenyl)-5-isopropyl-3-phenyl-4-[(4-hydroxymethylphenylamino)carbonyl]-pyrrol-1-yl]-3,5-dihydroxy-heptanoic acid hemicalcium salt]
Drug Content (pH 2.0 Buffer, 1 week, 2-8 °C): 0.21 mg/mL
Drug Content (pH 2.0 Buffer, 1 week, 25 °C): 0.22 mg/mL
Drug Content (pH 2.0 Buffer, 1 week, 50 °C): 0.14 mg/mL
Drug Content (pH 2.0 Buffer, 2 Weeks, 2-8 °C): 0.19 mg/mL
Drug Content (pH 2.0 Buffer, 2 Weeks, 25 °C): 0.18 mg/mL
Drug Content (pH 2.0 Buffer, 2 Weeks, 50 °C): 0.09 mg/mL
Drug Content (pH 2.0 Buffer, Initial): 0.42 mg/mL
Drug Content (pH 4.5 Buffer, 1 week, 2-8 °C): 0.50 mg/mL
Drug Content (pH 4.5 Buffer, 1 week, 25 °C): 0.50 mg/mL
Drug Content (pH 4.5 Buffer, 1 week, 50 °C): 0.43 mg/mL
Drug Content (pH 4.5 Buffer, 2 Weeks, 2-8 °C): 0.50 mg/mL
Drug Content (pH 4.5 Buffer, 2 Weeks, 25 °C): 0.48 mg/mL
Drug Content (pH 4.5 Buffer, 2 Weeks, 50 °C): 0.38 mg/mL
Drug Content (pH 4.5 Buffer, Initial): 0.51 mg/mL
Drug Content (pH 5.5 Buffer, 1 week, 2-8 °C): 0.50 mg/mL
Drug Content (pH 5.5 Buffer, 1 week, 25 °C): 0.50 mg/mL
Drug Content (pH 5.5 Buffer, 1 week, 50 °C): 0.45 mg/mL
Drug Content (pH 5.5 Buffer, 2 weeks, 2-8 °C): 0.50 mg/mL
Drug Content (pH 5.5 Buffer, 2 weeks, 25 °C): 0.48 mg/mL
Drug Content (pH 5.5 Buffer, 2 weeks, 50 °C): 0.40 mg/mL
Drug Content (pH 5.5 Buffer, Initial): 0.50 mg/mL
Drug Content (pH 7.5 Buffer, 1 week, 2-8 °C): 0.50 mg/mL
Drug Content (pH 7.5 Buffer, 1 week, 25 °C): 0.50 mg/mL
Drug Content (pH 7.5 Buffer, 1 week, 50 °C): 0.45 mg/mL
Drug Content (pH 7.5 Buffer, 2 Weeks, 2-8 °C): 0.49 mg/mL
Drug Content (pH 7.5 Buffer, 2 Weeks, 25 °C): 0.49 mg/mL
Drug Content (pH 7.5 Buffer, 2 Weeks, 50 °C): 0.37 mg/mL
Drug Content (pH 7.5 Buffer, Initial): 0.50 mg/mL
Drug Content (pH 9.0 Buffer, 1 week, 2-8 °C): 0.49 mg/mL
Drug Content (pH 9.0 Buffer, 1 week, 25 °C): 0.49 mg/mL
Drug Content (pH 9.0 Buffer, 1 week, 50 °C): 0.45 mg/mL
Drug Content (pH 9.0 Buffer, 2 Weeks, 2-8 °C): 0.45 mg/mL
Drug Content (pH 9.0 Buffer, 2 Weeks, 25 °C): 0.47 mg/mL
Drug Content (pH 9.0 Buffer, 2 Weeks, 50 °C): 0.42 mg/mL
Drug Content (pH 9.0 Buffer, Initial): 0.49 mg/mL
Drug Content (pH 10.0 Buffer, 1 week, 2-8 °C): 0.49 mg/mL
Drug Content (pH 10.0 Buffer, 1 week, 25 °C): 0.49 mg/mL
Drug Content (pH 10.0 Buffer, 1 week, 50 °C): 0.45 mg/mL
Drug Content (pH 10.0 Buffer, 2 Weeks, 2-8 °C): 0.49 mg/mL
Drug Content (pH 10.0 Buffer, 2 Weeks, 25 °C): 0.47 mg/mL
Drug Content (pH 10.0 Buffer, 2 Weeks, 50 °C): 0.44 mg/mL
Drug Content (pH 10.0 Buffer, Initial): 0.49 mg/mL
Drug Content (pH 12.0 Buffer, 1 week, 2-8 °C): 0.49 mg/mL
Drug Content (pH 12.0 Buffer, 1 week, 25 °C): 0.49 mg/mL
Drug Content (pH 12.0 Buffer, 1 week, 50 °C): 0.45 mg/mL
Drug Content (pH 12.0 Buffer, 2 Weeks, 2-8 °C): 0.49 mg/mL
Drug Content (pH 12.0 Buffer, 2 Weeks, 25 °C): 0.48 mg/mL
Drug Content (pH 12.0 Buffer, 2 Weeks, 50 °C): 0.44 mg/mL
Drug Content (pH 12.0 Buffer, Initial): 0.49 mg/mL
